Results reported in ChEMBL document CHEMBL4411307, “N,N'-diaryl-bishydrazones in a biphenyl platform: Broad spectrum antifungal agents” (Eur J Med Chem, 2019).
Converted amounts (≈) assume the structure as drawn. The source made the active and inactive calls. The calls are words filed in the database; no cut-off is given here.

Tests used:
[1] = Selectivity index, ratio of compound concentration showing <20 to <30% hemolysis in mouse RBC to MIC for Candida glabrata ATCC 2001; assay type: toxicity; settings: mouse red blood cells (RBC), read-out: Selectivity Index
[2] = tested on: BEAS-2B; test: Cytotoxicity against human BEAS2B cells after 24 hrs by resazurin based assay; assay type: cell-based
[3] = Selectivity index, ratio of compound concentration showing <20 to <30% hemolysis in mouse RBC to MIC for Candida krusei ATCC 6258; assay type: toxicity; settings: mouse red blood cells (RBC), read-out: Selectivity Index
[4] = Hemolytic activity in mouse RBC at […] after 1 hr relative to control; assay type: ADME, cell-based, Erythrocyte; settings: red blood cells (erythrocytes), read-out: Activity; further: tested at 0.48 µg/mL
[5] = Selectivity index, ratio of compound concentration showing <20 to <30% hemolysis in mouse RBC to MIC for fluconazole/ITC-susceptible Candida albicans ATCC MYA-2876; assay type: toxicity; settings: red blood cells (erythrocytes), read-out: Selectivity Index
[6] = Selectivity index, ratio of CC50 for human A549 cells to MIC for Aspergillus nidulans ATCC 38163; assay type: toxicity; settings: read-out: Selectivity Index
[7] = Selectivity index, ratio of CC50 for human A549 cells to MIC for Candida krusei ATCC 6258; assay type: toxicity; settings: read-out: Selectivity Index
[8] = Selectivity index, ratio of CC50 for human A549 cells to MIC for fluconazole/ITC-resistant Candida albicans ATCC 10231; assay type: toxicity; settings: read-out: Selectivity Index
[9] = tested on: A549; test: Cytotoxicity against human A549 cells after 24 hrs by resazurin based assay; assay type: cell-based; settings: a549, 24 h
[10] = tested on: Candida albicans; test: Antifungal activity against fluconazole/ITC-resistant Candida albicans ATCC 90819 measured after 48 hrs by CLSI M27-A3 protocol based method; assay type: functional; settings: ATCC 90819, 48 h
[11] = Hemolytic activity in mouse RBC at 31.3 ug/ml after 1 hr relative to control; assay type: ADME, cell-based, Erythrocyte; settings: red blood cells (erythrocytes), read-out: Activity
[12] = Hemolytic activity in mouse RBC at 1.95 ug/ml after 1 hr relative to control; assay type: ADME, cell-based, Erythrocyte; settings: red blood cells (erythrocytes), read-out: Activity
[13] = Selectivity index, ratio of compound concentration showing <20 to <30% hemolysis in mouse RBC to MIC for Aspergillus terreus ATCC MYA-3633; assay type: toxicity; settings: mouse red blood cells (RBC), read-out: Selectivity Index
[14] = Selectivity index, ratio of compound concentration showing <20 to <30% hemolysis in mouse RBC to MIC for fluconazole/ITC-resistant Candida albicans ATCC MYA-1237; assay type: toxicity; settings: mouse red blood cells (RBC), read-out: Selectivity Index
[15] = Hemolytic activity in mouse RBC at 7.8 ug/ml after 1 hr relative to control; assay type: ADME, cell-based, Erythrocyte; settings: red blood cells (erythrocytes), read-out: Activity
[16] = Selectivity index, ratio of CC50 for human A549 cells to MIC for Candida parapsilosis ATCC 22019; assay type: toxicity; settings: read-out: Selectivity Index
[17] = Selectivity index, ratio of CC50 for human A549 cells to MIC for fluconazole/ITC-susceptible Candida albicans ATCC MYA-2310; assay type: toxicity; settings: read-out: Selectivity Index
[18] = Selectivity index, ratio of CC50 for human A549 cells to MIC for fluconazole/ITC-resistant Candida albicans ATCC 90819; assay type: toxicity; settings: read-out: Selectivity Index
[19] = tested on: Candida albicans; test: Antifungal activity against fluconazole/ITC-resistant Candida albicans ATCC MYA-1003 measured after 48 hrs by CLSI M27-A3 protocol based method; assay type: functional; settings: ATCC MYA-1003, 48 h
[20] = Selectivity index, ratio of CC50 for human A549 cells to MIC for Aspergillus terreus ATCC MYA-3633; assay type: toxicity; settings: read-out: Selectivity Index
[21] = tested on: Candida albicans; test: Antifungal activity against fluconazole/ITC-susceptible Candida albicans ATCC MYA-2876 measured after 48 hrs by CLSI M27-A3 protocol based method; assay type: functional; settings: ATCC MYA-2876, 48 h
[22] = tested on: Aspergillus nidulans; test: Antifungal activity against Aspergillus nidulans ATCC 38163 measured after 48 hrs by CLSI M38-A2 protocol based method; assay type: functional; settings: ATCC 38163, 48 h
[23] = tested on: Nakaseomyces glabratus; test: Antifungal activity against Candida glabrata ATCC 2001 measured after 48 hrs by CLSI M27-A3 protocol based method; assay type: functional; settings: CBS 138, 48 h
[24] = tested on: Staphylococcus aureus; test: Antibacterial activity against methicillin-resistant Staphylococcus aureus; assay type: functional, organism-based
[25] = Selectivity index, ratio of compound concentration showing <20 to <30% hemolysis in mouse RBC to MIC for fluconazole/ITC-resistant Candida albicans ATCC MYA-1003; assay type: toxicity; settings: mouse red blood cells (RBC), read-out: Selectivity Index
[26] = Hemolytic activity in mouse RBC at 3.9 ug/ml after 1 hr relative to control; assay type: ADME, cell-based, Erythrocyte; settings: red blood cells (erythrocytes), read-out: Activity
[27] = tested on: Candida albicans; test: Antifungal activity against fluconazole/ITC-resistant Candida albicans ATCC 64124 measured after 48 hrs by CLSI M27-A3 protocol based method; assay type: functional; settings: ATCC 64124, 48 h
[28] = Selectivity index, ratio of CC50 for human A549 cells to MIC for fluconazole/ITC-susceptible Candida albicans ATCC MYA-2876; assay type: toxicity; settings: read-out: Selectivity Index
[29] = tested on: Candida albicans; test: Antifungal activity against fluconazole/ITC-resistant Candida albicans ATCC MYA-1237 measured after 48 hrs by CLSI M27-A3 protocol based method; assay type: functional; settings: ATCC MYA-1237, 48 h
[30] = Selectivity index, ratio of compound concentration showing <20 to <30% hemolysis in mouse RBC to MIC for fluconazole/ITC-resistant Candida albicans ATCC 64124; assay type: toxicity; settings: red blood cells (erythrocytes), read-out: Selectivity Index
[31] = Selectivity index, ratio of CC50 for human A549 cells to MIC for fluconazole/ITC-resistant Candida albicans ATCC MYA-1003; assay type: toxicity; settings: read-out: Selectivity Index
[32] = Hemolytic activity in mouse RBC at […] ug/ml after 1 hr relative to control; assay type: ADME, cell-based, Erythrocyte; settings: red blood cells (erythrocytes), read-out: Activity
[33] = tested on: Pichia kudriavzevii; test: Antifungal activity against Candida krusei ATCC 6258 measured after 48 hrs by CLSI M27-A3 protocol based method; assay type: functional; settings: ATCC 6258, 48 h
[34] = Selectivity index, ratio of compound concentration showing <20 to <30% hemolysis in mouse RBC to MIC for Candida parapsilosis ATCC 22019; assay type: toxicity; settings: mouse red blood cells (RBC), read-out: Selectivity Index
[35] = tested on: Aspergillus flavus; test: Antifungal activity against Aspergillus flavus ATCC MYA-3631 measured after 48 hrs by CLSI M38-A2 protocol based method; assay type: functional; settings: ATCC MYA-3631, 48 h
[36] = Hemolytic activity in mouse RBC at 62.5 ug/ml after 1 hr relative to control; assay type: ADME, cell-based, Erythrocyte; settings: red blood cells (erythrocytes), read-out: Activity
[37] = tested on: Candida albicans; test: Antifungal activity against fluconazole/ITC-susceptible Candida albicans ATCC MYA-2310 measured after 48 hrs by CLSI M27-A3 protocol based method; assay type: functional; settings: ATCC MYA-2310, 48 h
[38] = Selectivity index, ratio of CC50 for human A549 cells to MIC for fluconazole/ITC-resistant Candida albicans ATCC MYA-1237; assay type: toxicity; settings: read-out: Selectivity Index
[39] = Selectivity index, ratio of CC50 for human A549 cells to MIC for fluconazole/ITC-resistant Candida albicans ATCC 64124; assay type: toxicity; settings: read-out: Selectivity Index
[40] = Selectivity index, ratio of compound concentration showing <20 to <30% hemolysis in mouse RBC to MIC for fluconazole/ITC-resistant Candida albicans ATCC 10231; assay type: toxicity; settings: red blood cells (erythrocytes), read-out: Selectivity Index
[41] = Selectivity index, ratio of CC50 for human A549 cells to MIC for Candida glabrata ATCC 2001; assay type: toxicity; settings: read-out: Selectivity Index
[42] = tested on: Enterococcus; test: Antibacterial activity against vancomycin-resistant Enterococcus; assay type: functional, organism-based
[43] = Selectivity index, ratio of compound concentration showing <20 to <30% hemolysis in mouse RBC to MIC for Aspergillus nidulans ATCC 38163; assay type: toxicity; settings: mouse red blood cells (RBC), read-out: Selectivity Index
[44] = Selectivity index, ratio of compound concentration showing <20 to <30% hemolysis in mouse RBC to MIC for fluconazole/ITC-susceptible Candida albicans ATCC MYA-2310; assay type: toxicity; settings: mouse red blood cells (RBC), read-out: Selectivity Index
[45] = Selectivity index, ratio of compound concentration showing <20 to <30% hemolysis in mouse RBC to MIC for Aspergillus flavus ATCC MYA-3631; assay type: toxicity; settings: mouse red blood cells (RBC), read-out: Selectivity Index
[46] = tested on: Candida parapsilosis; test: Antifungal activity against Candida parapsilosis ATCC 22019 measured after 48 hrs by CLSI M27-A3 protocol based method; assay type: functional; settings: Lodderomyces parapsilosis, ATCC 22019, 48 h
[47] = tested on: Candida albicans; test: Antifungal activity against fluconazole/ITC-resistant Candida albicans ATCC 10231 measured after 48 hrs by CLSI M27-A3 protocol based method; assay type: functional; settings: ATCC 10231, 48 h
[48] = tested on: Listeria monocytogenes; test: Antibacterial activity against Listeria monocytogenes; assay type: functional, organism-based
[49] = Selectivity index, ratio of compound concentration showing <20 to <30% hemolysis in mouse RBC to MIC for fluconazole/ITC-resistant Candida albicans ATCC 90819; assay type: toxicity; settings: red blood cells (erythrocytes), read-out: Selectivity Index
[50] = tested on: Aspergillus terreus; test: Antifungal activity against Aspergillus terreus ATCC MYA-3633 measured after 48 hrs by CLSI M38-A2 protocol based method; assay type: functional; settings: ATCC MYA-3633, 48 h

Work on `Fc1cccc(N/N=C/c2ccc(-c3ccc(/C=N/Nc4cccc(F)c4)cc3)cc2)c1` yielded a selectivity ratio [1] of 1 to 32, a CC50 [2] of 16 µg/mL (≈ 37.5 µM) and a selectivity ratio [3] of 1 to 32. It also gave a hemolysis at 1 h, […] [4] of 0.2%, a selectivity ratio [5] of 1 to 32 and a selectivity ratio [6] of 1. For the same compound, the selectivity ratio [7] was 2, the selectivity ratio [8] was 4 and the CC50 [9] was > 31 µg/mL. The MIC [10] was > 31.3 µg/mL, the hemolysis at 1 h, 31.3 ug/ml [11] was 10.3% and the hemolysis at 1 h, 1.95 ug/ml [12] was 0%. The selectivity ratio [13] was 1 to 32, the selectivity ratio [14] was 1 to 32 and the hemolysis at 1 h, 7.8 ug/ml [15] was 2.6%. The selectivity ratio [16] was 8, the selectivity ratio [17] was 1 and the selectivity ratio [18] was 1. For the same compound, the MIC [19] was > 31.3 µg/mL, the selectivity ratio [20] was 1 and the MIC [21] was > 31.3 µg/mL. For the same compound, the MIC [22] was > 31.3 µg/mL, the MIC [23] was > 31.3 µg/mL and the Activity [24] was “inactive”. For the same compound, the selectivity ratio [25] was 1 to 32, the hemolysis at 1 h, 3.9 ug/ml [26] was 3.2% and the MIC [27] was > 31.3 µg/mL. The selectivity ratio [28] was 1, the MIC [29] was > 31.3 µg/mL and the selectivity ratio [30] was 1 to 32. The selectivity ratio [31] was 1, the hemolysis at 1 h, 15.6 ug/ml ([32]; at 15.6 µg/mL) was 7.7% and the hemolysis at 1 h, 0.975 ug/ml [32] was 0.8%. It also gave an MIC [33] of 15.6 µg/mL (≈ 36.6 µM), a selectivity ratio [34] of 1 to 32 and an MIC [35] of 31.3 µg/mL (≈ 73.4 µM). For the same compound, the hemolysis at 1 h, 62.5 ug/ml [36] was 13.6%, the MIC [37] was > 31.3 µg/mL and the selectivity ratio [38] was 1. For the same compound, the selectivity ratio [39] was 1, the selectivity ratio [40] was 1 to 32 and the selectivity ratio [41] was 1. For the same compound, the Activity [42] was “inactive”, the selectivity ratio [43] was 1 to 32 and the selectivity ratio [44] was 1 to 32. For the same compound, the selectivity ratio [45] was 1 to 32, the MIC [46] was 3.9 µg/mL (≈ 9.14 µM) and the MIC [47] was 7.8 µg/mL (≈ 18.3 µM). For the same compound, the Activity [48] was “inactive”, the selectivity ratio [49] was 1 to 32 and the MIC [50] was > 31.3 µg/mL.
